Test results published in patent publication US8268862B2, “Sirtuin modulating compounds” (Sirtris Pharmaceuticals, Inc., priority 2007, dated 2012).

Target: T1, SIRT1 (Homo sapiens, UniProt Q96EB6)
T1 sequence (Q96EB6 1-747): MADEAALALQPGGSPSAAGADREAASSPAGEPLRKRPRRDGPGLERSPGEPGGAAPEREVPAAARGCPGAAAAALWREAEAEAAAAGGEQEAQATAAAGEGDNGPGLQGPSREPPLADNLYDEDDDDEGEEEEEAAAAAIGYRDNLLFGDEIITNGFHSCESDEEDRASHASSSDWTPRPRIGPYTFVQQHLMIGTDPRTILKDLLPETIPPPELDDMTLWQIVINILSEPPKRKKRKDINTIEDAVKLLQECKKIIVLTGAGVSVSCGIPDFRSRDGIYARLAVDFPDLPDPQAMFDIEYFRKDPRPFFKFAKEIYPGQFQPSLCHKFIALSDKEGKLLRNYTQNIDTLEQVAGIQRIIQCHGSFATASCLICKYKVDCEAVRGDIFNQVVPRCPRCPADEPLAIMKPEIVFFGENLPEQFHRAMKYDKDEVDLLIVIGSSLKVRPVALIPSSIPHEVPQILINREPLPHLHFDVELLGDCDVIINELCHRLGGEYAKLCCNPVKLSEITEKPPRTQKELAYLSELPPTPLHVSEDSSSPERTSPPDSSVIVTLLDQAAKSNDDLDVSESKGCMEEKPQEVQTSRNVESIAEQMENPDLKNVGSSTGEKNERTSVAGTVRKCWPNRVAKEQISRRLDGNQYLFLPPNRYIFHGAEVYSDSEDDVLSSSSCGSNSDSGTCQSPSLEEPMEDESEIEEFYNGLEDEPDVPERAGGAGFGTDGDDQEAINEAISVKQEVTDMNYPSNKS
Assay: mass spectrometry based SIRT1 deacetylation assay (activation)
Format: biochemical
Conditions: 0.5 μM peptide substrate, 120 μM βNAD+, 10 nM SIRT1, 25 min at 25° C.; for EC1.5 (concentration of test compound that results in 150% activation of SIRT1): NA = not active in the assay; for Emax: read-out: % FOLD ACT. (percent maximum fold activation of SIRT1)
Excerpt: A mass spectrometry based assay was used to identify modulators of SIRT1 activity. The mass spectrometry based assay utilizes a peptide having 20 amino acid residues as follows: Ac-EE-K(biotin)-GQSTSSHSK(Ac)NleSTEG-K(5TMR)-EE-NH2 (SEQ ID NO: 1) wherein K(Ac) is an acetylated lysine residue and Nle is a norleucine. The peptide is labeled with the fluorophore 5TMR (excitation 540 nm/emission 580 nm) at the C-terminus. The sequence of the peptide substrate is based on p53 with several modifications. In addition, the methionine residue naturally present in the sequence was replaced with the norleucine because the methionine may be susceptible to oxidation during synthesis and purification.
Test compounds may be added to the reaction as described above. […] After the 25 minute incubation with SIRT1, 10 μL of 10% formic acid is added to stop the reaction. Reactions are sealed and frozen for later mass spec analysis. Determination of the mass of the substrate peptide allows for precise determination of the degree of acetylation (i.e. starting material) as compared to deacetylated peptide (product).
A control for inhibition of sirtuin activity is conducted by adding 1 μL of 500 mM nicotinamide as a negative control at the start of the reaction (e.g., permits determination of maximum sirtuin inhibition). A control for activation of sirtuin activity is conducted using 10 nM of sirtuin protein, with 1 μL of DMSO in place of compound, to determine the amount of deacetylation of the substrate at a given timepoint within the linear range of the assay. This timepoint is the same as that used for test compounds and, within the linear range, the endpoint represents a change in velocity.
For the above assay, SIRT1 protein was expressed and purified as follows. […] The protein was expressed by induction with 1 mM IPTG as an N-terminal His-tag fusion protein at 18° C. overnight and harvested at 30,000×g. Cells were lysed with lysozyme in lysis buffer (50 mM Tris-HCl, 2 mM Tris[2-carboxyethyl]phosphine (TCEP), 10 μM ZnCl2, 200 mM NaCl) and further treated with sonication for 10 min for complete lysis. The protein was purified over a Ni-NTA column (Amersham) and fractions containing pure protein were pooled, concentrated and run over a sizing column (Sephadex S200 26/60 global). The peak containing soluble protein was collected and run on an Ion-exchange column (MonoQ). Gradient elution (200 mM-500 mM NaCl) yielded pure protein. This protein was concentrated and dialyzed against dialysis buffer (20 mM Tris-HCl, 2 mM TCEP) overnight. The protein was aliquoted and frozen at −80° C. until further use.
Sirtuin modulating compounds that activated SIRT1 were identified using the assay described above and are shown below in Table 3. The EC1.5 values represent the concentration of test compounds that result in 150% activation of SIRT1. NT means that the compound was not tested using the indicated assay. NA means that the compound was not active in the indicated assay.

Row | EC1.5 (concentration of test compound that results in 150% activation of SIRT1) [NM] | Emax [%] | Structure (SMILES)
1 | 2810 | 163 | CN(C)Cc1cnc2sc(-c3ccccc3NC(=O)c3cnc4ccccc4n3)nc2c1 [Compound 92]
2 | 397 | 603 | O=C(Nc1ccccc1-c1nc2cc(CN3CCNCC3)cnc2s1)c1cccc(-n2cccn2)c1 [Compound 44]
3 | 260 | > 500 | O=C(Nc1ccccc1-c1nc2cc(CN3CCNCC3)cnc2s1)c1ccc2ccccc2n1 [Compound 64]
4 | 548 | 292 | O=C(Nc1ccccc1-c1nc2cc(CN3CCOCC3)cnc2s1)c1cccc(-c2ncccn2)c1 [Compound 38]
5 | 182 | 397 | O=C(Nc1ccccc1-c1nc2cc(CN3CCOCC3)cnc2s1)c1cccc(-n2cccn2)c1 [Compound 40]
6 | 750 | 291 | O=C(Nc1ccccc1-c1nc2cc(CN[C@@H]3CCC[C@H]3O)cnc2s1)c1ccc2ccccc2n1 [Compound 121]
7 | 141 | 364 | COCCN1CCN(Cc2cnc3sc(-c4ccccc4NC(=O)c4ccn(-c5ccccc5)n4)nc3c2)CC1 [Compound 155]
8 | – | 100 | Cc1nc(-c2cccnc2)sc1C(=O)Nc1ccccc1-c1nc2cc(CN3CCOCC3)cnc2s1 [Compound 80]
9 | 215 | 500 | Cc1cc(C(=O)Nc2ccccc2-c2nc3cc(CN4CCOCC4)cnc3s2)nc(-c2ccccc2)n1 [Compound 132]
10 | – | 139 | O=C(Nc1ccccc1-c1nc2cc(CN3CCOCC3)cnc2s1)c1nc2ccccc2o1 [Compound 98]
11 | 722 | 198 | CC(C)NCc1cnc2sc(-c3ccccc3NC(=O)c3cccc(-c4ccccc4)c3)nc2c1 [Compound 19]
12 | 815 | 162 | Cc1nc(-c2cccc(C(=O)Nc3ccccc3-c3nc4cc(CN5CC[C@@H](F)C5)cnc4s3)c2)cs1 [Compound 32]
13 | 455 | 192 | O=C(Nc1ccccc1-c1nc2cc(CN3CC[C@@H](F)C3)cnc2s1)c1cccc(-c2ccccn2)c1 [Compound 26]
14 | 990 | 161 | COCCN1CCN(Cc2cnc3sc(-c4ccccc4NC(=O)c4cnc5ccccc5n4)nc3c2)CC1 [Compound 130]
15 | 480 | 324 | O=C(Nc1ccccc1-c1nc2cc(CN[C@H]3CC[C@H](O)CC3)cnc2s1)c1ccc2ccccc2n1 [Compound 117]
16 | 687 | 224 | O=C(Nc1ccccc1-c1nc2cc(CN3CCCC3)cnc2s1)c1cccc(-c2ccccn2)c1 [Compound 20]
17 | 428 | 277 | O=C(Nc1ccccc1-c1nc2cc(CN3CCCC3)cnc2s1)c1ccn(-c2ccccc2)n1 [Compound 154]
18 | 683 | 360 | C[C@@H]1CN(Cc2cnc3sc(-c4ccccc4NC(=O)c4cccc(-c5ccncc5)c4)nc3c2)C[C@H](C)N1 [Compound 17]
19 | 986 | 142 | O=C(Nc1ccccc1-c1nc2cc(CN3CC[C@@H](F)C3)cnc2s1)c1cccc(-c2ccc[n+]([O-])c2)c1 [Compound 30]
20 | 1940 | 400 | O=C(Nc1ccccc1-c1nc2cc(CN3CCNCC3)cnc2s1)c1cn2ccccc2n1 [Compound 123]
21 | 674 | 443 | O=C(Nc1ccccc1-c1nc2cc(CN3CCOCC3)cnc2s1)c1ccn(-c2ccccc2)n1 [Compound 156]
